According to publication PMC7076382 (Pharmaceutics, 2020):
Where two headings read alike, the source gives them in different places. Blank lines part the entries; values can stand above or below the molecule they belong to. Non-standard residues stand in square brackets, D forms with d. Residues, ends and D or L forms follow the SMILES beside them. dTrp(2-Me) = Cc1[nH]c2ccccc2c1C[C@@H](N)C(=O)O

Columns and labels:
rat intestine = settings: cited from earlier work; for effect on permeation of small model drugs: caprate at 2 and 5 mg/mL
jejunal segment [1] = test: Blood-to-lumen jejunal 51Cr-EDTA clearance (CLCr-EDTA) during SPIP
Procedure: (§1) At the SPIP experiment, the abdomen was opened along the midline and a jejunal segment of 10–15 cm was cannulated, covered with polyethylene wrap, and placed outside the abdomen. The bile duct was cannulated to avoid pancreaticobiliary secretion into the duodenum. […] During the first 30 min following surgery, each intestinal segment was single-passed perfused with 37 °C phosphate buffered saline (6 mM, pH 6.5 or 7.4). […] The length of the intestinal segment was measured after the jejunal cannulation as was the wet tissue weight of the segment after the experiment. The perfusion rate was at all times 0.2 mL/min (peristaltic pump, Gilson Minipuls 3, Le Bel, France).
Luminal perfusates and blood plasma at 0 and 135 min were analyzed for ^51Cr activity (cpm) in a gamma counter (1282 Compugamma CS, Pharmacia AB, Uppsala, Sweden). A linear regression analysis of the plasma samples was made to obtain a corresponding plasma value for each perfusate sample. […] CLCr-EDTA was determined during the last 45 min for the control solution and during the last 60 min for the test solutions (the first 15 min in each period was for equilibration). […]
(§2) Peff and CLCr-EDTA values, are expressed as the mean ± standard deviation (SD) or standard error of the mean (SEM). […]

jejunal segment [2] = test: Single-pass intestinal perfusion (SPIP), jejunal lumen-to-blood effective permeability (Peff); settings: any investigated luminal concentration: SDS 5 mg/mL; caprate 5, 10, 20 mg/mL
Procedure: (§3) In short, male Wistar Han rats (strain 273) from Charles River Co. (Cologne, Germany), weight 270–363 g, were used. On the study day, the rats were anesthetized using an intraperitoneal injection of a 5% w/v thiobutabarbital solution (180 mg/kg). Body temperature was maintained at 37.5 ± 0.5 °C. To validate the condition of the animal, the systemic arterial blood pressure was continuously recorded by connecting the arterial catheter to a transducer operating a PowerLab system (AD Instruments, Hastings, UK).
as §1
(§4) Each perfusate experiment was divided into two parts. […] The 10 and 20 mg/mL concentrations (suspensions) were used to evaluate if concentrations above saturation had any impact on membrane permeability.
(§5) The five experiments were designed such that each rat was its own control. The experimental period started with a rapid filling (<30 s) of the whole segment with the perfusate (about 1.5 mL for a 10 cm segment). The intestinal segment and perfusates were kept at 37 °C, and all outgoing perfusate was collected and weighed at 15-min intervals.
(§6) In short, an input rate was acquired by deconvolution of the plasma concentration–time profiles following the intestinal perfusion. […] From the input rate, an absorption rate was then calculated by compensating for first-pass extraction (Ffirstpass) of each compound in the rat intestine and liver. […] Plasma CL values were derived from the two-compartment analysis of the intravenous plasma data and an assumed rat liver blood flow of 47 mL/min/kg [24]. The Peff (cm/s) was then calculated by relating the absorption rate to the intestinal luminal area using Equation (2):(2) Peff=absorption rate/A × C where A is the area of the exposed intestinal segment described as a smooth cylinder with a radius of 0.2 cm and C is the concentration entering the luminal segment. Peff was evaluated from 0 to 135 min, and the mean Peff value of the two perfusion periods (60-min control and 75-min test) was regarded as representative for each individual rat.
as §2

intestinal lumen = test system: intestinal lumen; set-up: method as in PMID 29758344; settings: caprate dose of 11.4 mg/mL, formulation pH 6.5 and 7.4; cited from earlier work
Caco-2 model = test system: Caco-2 model; set-up: method as in PMID 11578108; settings: cited from earlier work
colonic = settings: cited from earlier work
in vivo = settings: rat, iv
Procedure: (§7) Blood samples of <0.3 mL were collected from the femoral artery for a maximum volume of 4 mL during each experiment. All sampled blood volumes were replaced by an equivalent volume of saline (0.9% NaCl) containing 70 mg/mL bovine serum albumin. For the intravenous administration, blood was sampled over 6 h (at 5, 10, 20, 40, 60, 90 min and at 2, 4, and 6 h). […] The blood samples were put on ice and centrifuged (5000× g, 3 min at 4 °C) within 10 min of sampling; 100 μL of the plasma was transferred to 0.5 mL micro tubes and stored at −80 °C until analysis.
(§8) Plasma CL values were derived from the two-compartment analysis of the intravenous plasma data and an assumed rat liver blood flow of 47 mL/min/kg [24].
(§9) The plate was vortex-mixed for 10 min (pulse 1200) after which it was centrifuged for 10 min at 2862× g. The supernatants were then injected into the UHPLC-MS/MS system. The column used was an Acquity UPLC Peptide BEH C18 (50 × 2.1 mm length × inner diameter, 1.7 µm particle size) from Waters Corp. (Milford, MA, USA). The mobile phase consisted of (A) 0.1% formic acid in water and (B) 0.1% formic acid in acetonitrile. Gradient elution was initially 2.0% B for 0.50 min, with a linear increase to 90% B for 1.5 min, held constant at 90% B for 0.30 min, then back to 2.0% B in 0.30 min, and constant again at 2.0% B for 0.40 min. The total run time was 3.0 min.

[3] = rat, in vivo, iv
Procedure: as §7, §8, §9

[4] = cited from earlier work; for Log D6.5: pH 6.5; for Log D7.4: pH 7.4
[5] = Single-pass intestinal perfusion (SPIP), jejunal lumen-to-blood effective permeability (Peff); settings: male, Wistar Han, rat, other: single-pass jejunal perfusion
Procedure: as §3, §1, §4, §5, §6, §2

[6] = rat
Procedure: as §3, §1, §4, §5, §6, §2

jejunal segment [7] = settings: rat
Procedure: as §3, §1, §4, §5, §6, §2

rat liver = settings: in vivo; cited from earlier work
[8] = rat, in vivo, iv; remark: listed apart in the source
Procedure: as §7, §8, §9

serine protease = test system: serine protease; set-up: method as in PMID 9643439, PMID 11578108; settings: rat, pefabloc SC at 0.3 mg/mL; cited from earlier work
[9] = dog, in vivo, po, 600 mg; cited from earlier work
[10] = n-octanol-water, source not given

Molecule: CCCCCCCCCCCCOS(=O)(=O)[O-].[Na+] [SDS, sodium dodecyl sulfate]
pH dependence of the effect on the permeability of enalaprilat and CLCr-EDTA (rat intestine; SDS at 5 mg/mL, pH 6.5 vs. 7.4): unaffected by pH
increase of absorption of atenolol (rat intestine; SDS at 5 mg/mL, rat SPIP): 10 fold
increase of absorption of enalaprilat (rat intestine; SDS at 5 mg/mL, rat SPIP): 40 fold
increase of absorption of ketoprofen (rat intestine; SDS at 5 mg/mL, rat SPIP): not at all
effect on lumen-to-blood transport of four low permeation model compounds and on CLCr-EDTA (rat intestine; SPIP model, acyclovir, atenolol, enalaprilat, phenol red): increase the lumen-to-blood transport
effect on permeation of small model drugs (rat intestine; rat SPIP, SDS at 5 mg/mL): increases permeation in both absorptive and secretory directions
CLCr-EDTA ratio (test vs. control period) (jejunal segment [1]; permeation enhancer at 5 mg/mL, pH 7.4, solution): significant increase
effect on hexarelin absorption (Peff ratio of hexarelin) (jejunal segment [2]): Neither SDS nor caprate at any of the investigated luminal concentrations enhanced absorption

Molecule: O=C([O-])CN(CCN(CC(=O)[O-])CC(=O)[O-])CC(=O)[O-].[51Cr+3] [^51Cr-EDTA, ^51Chromium-labeled ethylenediaminetetraacetate]
CLCr-EDTA (blood-to-lumen clearance) (jejunal segment [1]; control solution, mean ± SD, n = 24): 0.092 ± 0.039 mL/min/100 g

Molecule: CCCCCCCCCC(=O)[O-].[Na+] [caprate, sodium caprate]
absorption-enhancing effect on small low permeability model compounds (rat intestine; caprate at 2 mg/mL, rat jejunal SPIP): did not observe any absorption-enhancing effect
effective caprate concentrations (rat intestine; rat SPIP model): 4 to 20 mg/mL
effect on permeation of small model drugs (rat intestine; rat SPIP, SDS at 5 mg/mL): does not
absorption-enhancing effect (intestinal lumen): no effect
increase of apparent permeability of hexarelin (Caco-2 model): over 200 fold
effect of caprate when pH was increased from 6.5 to 7.4 (colonic; 4 mg/mL caprate, rectal perfusion study): increased
human colonic Peff (colonic): 1.4 ± 0.4 × 10^−4 cm/s

clearance (in vivo): 3 mL/min
C1 (intercept of first term) [3]: 428.6 (449.1/408.0) nM
C2 (intercept of second term) [3]: 87.7 (105.5/70.0) nM
λ1 (slope of first term) [3]: 3.9 (4.6/3.3) h^−1
λ2 (slope of second term) [3]: 0.38 (0.45/0.31) h^−1
Papp at 100 µM [5]: 1.3 ± 0.9 ×10⁻⁶ cm/s
Molecule: C[C@H](N[C@@H](CCc1ccccc1)C(=O)O)C(=O)N1CCC[C@H]1C(=O)O [enalaprilat]
basal permeability (rat intestine; rat SPIP): 1.1 ×10⁻⁶ cm/s
Log D6.5 [4, 10]: −1.0
Log D7.4 [4, 10]: −1.0

Papp [6]: 0.19 ± 0.14 ×10⁻⁶ cm/s
permeability at pH 6.5 compared to pH 7.4 (jejunal segment [7]): lower at pH 6.5 compared to pH 7.4
C1 (intercept of first term) [3]: 355.2 (416.9/293.5) nM
C2 (intercept of second term) [3]: 133.7 (149.1/118.3) nM
λ1 (slope of first term) [3]: 13.7 (17.5/10.0) h^−1
λ2 (slope of second term) [3]: 2.08 (2.26/1.91) h^−1
clearance [8]: 10.3 mL/min
Molecule: Cc1[nH]c2ccccc2c1C[C@@H](NC(=O)[C@@H](N)Cc1cnc[nH]1)C(=O)N[C@@H](C)C(=O)N[C@@H](Cc1c[nH]c2ccccc12)C(=O)N[C@H](Cc1ccccc1)C(=O)N[C@@H](CCCCN)C(N)=O [hexarelin] (H-H[dTrp(2-Me)]AW[dF]K-NH2)
Ffirstpass (first-pass extraction) (rat liver): 0.63
Log D6.5 [4]: −3.40
Log D7.4 [4]: −2.26

Molecule: CC(C(=O)O)c1cccc(C(=O)c2ccccc2)c1 (centres unmarked) [ketoprofen]
basal permeability (rat intestine; rat SPIP): 160 ×10⁻⁶ cm/s

Molecule: Cl.NCCc1ccc(S(=O)(=O)F)cc1 [pefabloc SC]
inhibition of intestinal degradation of hexarelin (serine protease): completely inhibits

Molecule: semaglutide
bioavailability [9]: 0.29%
